Measurements: US20060155119A1, “Ascomycin crystalline forms and preparation thereof” (priority 2004, published 2006)

Test: Storing crystalline Ascomycin Form A at 150° C. for 1 hour, solid form checked by PXRD/DSC
Format: physicochemical
Conditions: solid sample, initial PXRD form A, remark wraps over r7-r8: 'Remained crystalline'
Experimental: The crystalline forms of ascomycin, produced by the methods of the present invention can be analyzed by Powder X-ray diffraction (PXRD) was performed on an X-Ray powder diffractometer, ARL, θ-θ goniometer, Cu-tube, solid state detector with Peltier cooling. The sample holder was a round standard aluminum sample holder with round zero background. Scanning parameters: Range: 2-40 deg.2θ, Continuous Scan, Rate: 3 deg./min.
Ascomycin crystalline forms can also be analyzed by thermal analysis, which can be carried out by […] scanning calorimetry (DSC) and by thermogravimetric analysis (TGA). DSC thermograms can be obtained on a DSC822^e Mettler Toledo instrument (Advanced Instruments, San Juan, Puerto Rico). Sample weight: 3-5 mg; Heating rate: 10° C./min; Number of holes in the crucible: 3. TGA thermograms can be obtained on a Mettler TGA/SDTA 851 instrument (Advanced Instruments, San Juan, Puerto Rico) using a standard Allumina pan. Sample weight: 7-15 mg; Heating rate: 10° C./min.
Starting from Form A having the properties listed in Table 1, incubation at 150° C. for 1 hour produced Ascomycin Form C.

## CC[C@@H]1/C=C(\C)C[C@H](C)C[C@H](OC)[C@H]2O[C@@](O)(C(=O)C(=O)N3CCCC[C@H]3C(=O)O[C@H](/C(C)=C/[C@@H]3CC[C@@H](O)[C@H](OC)C3)[C@H](C)[C@@H](O)CC1=O)[C@H](C)C[C@@H]2OC [Form A, Ascomycin]
  remarks after storing at 150° C. for 1 hour: Remained
